The values that follow come from US8940724B2, “Quinoline derivitives and their uses” (Amgen Inc., priority 2009, dated 2015).

The structures appear in SMILES notation.

The target in the assay is T1, PI3Kδ (Homo sapiens, UniProt O00329).
T1 construct: Full length p110 subunits of PI3k α, β and δ, N-terminally labeled with polyHis tag; polyHis (N); made in house; host or cells: Sf9 insect cells (baculovirus)
The assay can be described thus: PI3Kδ Alphascreen assay. Format: biochemical. For orientation: In Alpha technology, singlet oxygen from a donor bead excites a nearby acceptor bead.

T1 sequence (O00329 whole entry): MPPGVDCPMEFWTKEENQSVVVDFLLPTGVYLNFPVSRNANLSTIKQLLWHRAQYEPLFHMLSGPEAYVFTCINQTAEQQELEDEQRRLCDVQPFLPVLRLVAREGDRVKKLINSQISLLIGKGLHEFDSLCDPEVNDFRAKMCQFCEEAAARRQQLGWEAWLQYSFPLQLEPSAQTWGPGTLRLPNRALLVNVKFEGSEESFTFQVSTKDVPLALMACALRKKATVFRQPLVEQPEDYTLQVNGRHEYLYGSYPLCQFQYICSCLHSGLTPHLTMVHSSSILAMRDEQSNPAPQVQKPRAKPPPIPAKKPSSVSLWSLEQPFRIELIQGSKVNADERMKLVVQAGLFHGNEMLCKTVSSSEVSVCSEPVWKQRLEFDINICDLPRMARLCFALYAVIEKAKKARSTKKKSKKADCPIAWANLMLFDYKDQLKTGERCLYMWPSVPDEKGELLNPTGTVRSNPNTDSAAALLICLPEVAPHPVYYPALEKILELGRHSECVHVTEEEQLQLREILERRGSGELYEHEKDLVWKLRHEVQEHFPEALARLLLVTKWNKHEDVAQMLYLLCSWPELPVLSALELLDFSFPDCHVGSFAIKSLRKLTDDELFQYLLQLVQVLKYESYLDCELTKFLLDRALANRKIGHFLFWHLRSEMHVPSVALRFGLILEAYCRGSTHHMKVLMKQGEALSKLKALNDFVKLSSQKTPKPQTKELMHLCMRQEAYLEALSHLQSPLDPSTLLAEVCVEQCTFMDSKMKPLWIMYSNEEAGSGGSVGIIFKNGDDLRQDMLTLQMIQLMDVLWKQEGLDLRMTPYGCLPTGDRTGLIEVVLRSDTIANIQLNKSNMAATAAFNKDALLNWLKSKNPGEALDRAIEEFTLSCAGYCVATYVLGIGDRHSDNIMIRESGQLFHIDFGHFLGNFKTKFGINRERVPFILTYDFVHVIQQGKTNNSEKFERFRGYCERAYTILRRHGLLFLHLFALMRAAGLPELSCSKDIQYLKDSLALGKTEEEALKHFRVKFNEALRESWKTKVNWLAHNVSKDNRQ
T1 sequence (P27986 whole entry partner): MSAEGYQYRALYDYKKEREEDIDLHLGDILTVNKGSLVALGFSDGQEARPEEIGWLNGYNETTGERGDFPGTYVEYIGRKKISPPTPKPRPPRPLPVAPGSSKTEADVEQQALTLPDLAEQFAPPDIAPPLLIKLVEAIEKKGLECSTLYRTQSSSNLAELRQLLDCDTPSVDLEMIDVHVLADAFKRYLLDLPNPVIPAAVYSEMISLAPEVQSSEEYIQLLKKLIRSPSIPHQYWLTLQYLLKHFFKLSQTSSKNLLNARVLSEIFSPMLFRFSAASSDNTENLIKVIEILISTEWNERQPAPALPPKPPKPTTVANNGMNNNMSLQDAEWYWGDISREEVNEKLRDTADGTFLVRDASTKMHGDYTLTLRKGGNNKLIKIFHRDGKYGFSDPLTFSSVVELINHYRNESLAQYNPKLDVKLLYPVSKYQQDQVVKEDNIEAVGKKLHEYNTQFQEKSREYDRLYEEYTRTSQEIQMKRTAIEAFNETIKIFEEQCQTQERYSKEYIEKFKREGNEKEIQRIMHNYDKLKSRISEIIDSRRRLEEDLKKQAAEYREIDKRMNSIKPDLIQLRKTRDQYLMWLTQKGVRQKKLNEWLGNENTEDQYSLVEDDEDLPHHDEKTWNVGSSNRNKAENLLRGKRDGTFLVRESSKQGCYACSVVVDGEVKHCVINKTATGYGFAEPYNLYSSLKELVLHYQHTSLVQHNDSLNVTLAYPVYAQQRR

One may read the Ki as a measure of affinity in units of concentration, obtained from inhibition or displacement. Higher therefore signals lower affinity. As to `Cc1c(-c2cc(F)ccc2S(C)(=O)=O)nc2cc(F)cc(F)c2c1Nc1cncc(N2CCOCC2)c1` [5,7-difluoro-2-(5-fluoro-2-(methylsulfonyl)phenyl)-3-methyl-N-(5-(4-morpholinyl)-3-pyridinyl)-4-quinolinamine], the inhibition constant Ki worked out at 2.91 nM.

As for `COc1cncc(-c2nc3cc(F)cc(F)c3c(Nc3cncc(N4CCOCC4)c3)c2C)c1` [5,7-difluoro-2-(5-methoxy-3-pyridinyl)-3-methyl-N-(5-(4-morpholinyl)-3-pyridinyl)-4-quinolinamine], the affinity corresponds to a Ki of 37.4 nM.

`Cc1c(-c2ccccc2[S@+](C)[O-])nc2cc(F)cc(F)c2c1Nc1cncc(N2CCOCC2)c1` [5,7-difluoro-3-methyl-2-(2-((S)-methylsulfinyl)phenyl)-N-(5-(4-morpholinyl)-3-pyridinyl)-4-quinolinamine] registered an inhibitory constant (Ki) of 3.89 nM. This Ki lies about 9.6-fold lower than the previous one.

Compound `Cc1c(-c2cc(OC(F)(F)F)ccc2S(C)(=O)=O)nc2cc(F)cc(F)c2c1Nc1cncc(N2CCOCC2)c1` [5,7-difluoro-3-methyl-2-(2-(methylsulfonyl)-5-(trifluoromethoxy)phenyl)-N-(5-(4-morpholinyl)-3-pyridinyl)-4-quinolinamine] displayed an inhibition constant Ki of 4.18 nM.

In the case of `Cc1c(-c2ccccc2S(C)(=O)=O)nc2cc(F)cc(F)c2c1Nc1cncc(N2CCOCC2)c1` [5,7-difluoro-3-methyl-2-(2-(methylsulfonyl)phenyl)-N-(5-(4-morpholinyl)-3-pyridinyl)-4-quinolinamine], affinity was put at a Ki of 3.24 nM.

On to `Cc1c(-c2ccccn2)nc2cc(F)cc(F)c2c1Nc1cncc(C2CCOCC2)c1` [5,7-difluoro-3-methyl-2-(2-pyridinyl)-N-(5-(tetrahydro-2H-pyran-4-yl)-3-pyridinyl)-4-quinolinamine], for which the inhibition constant Ki came out at 209 nM. Compared with the last compound, the Ki is about 65-fold higher.

The compound `Cc1c(N2CCN(C(C)C)CC2)nc2cc(F)cc(F)c2c1Nc1cncc(N2CCOCC2)c1` [5,7-difluoro-3-methyl-2-(4-(1-methylethyl)-1-piperazinyl)-N-(5-(4-morpholinyl)-3-pyridinyl)-4-quinolinamine] yielded a Ki of 11.3 nM.

The compound `Cc1c(N2CCN(C(=O)C(C)C)CC2)nc2cc(F)cc(F)c2c1Nc1cncc(N2CCOCC2)c1` [5,7-difluoro-3-methyl-2-(4-(2-methylpropanoyl)-1-piperazinyl)-N-(5-(4-morpholinyl)-3-pyridinyl)-4-quinolinamine] gave a Ki of 33.3 nM.

On to `Cc1c(N2CCN(S(=O)(=O)C(C)C)CC2)nc2cc(F)cc(F)c2c1Nc1cncc(N2CCOCC2)c1` [5,7-difluoro-3-methyl-2-(4-((1-methylethyl)sulfonyl)-1-piperazinyl)-N-(5-(4-morpholinyl)-3-pyridinyl)-4-quinolinamine], for which the inhibition constant Ki was found to be 53.4 nM.

`Cc1c(N2CCN(S(=O)(=O)CC(C)C)CC2)nc2cc(F)cc(F)c2c1Nc1cncc(N2CCOCC2)c1` [5,7-difluoro-3-methyl-2-(4-((2-methylpropyl)sulfonyl)-1-piperazinyl)-N-(5-(4-morpholinyl)-3-pyridinyl)-4-quinolinamine] came in with a Ki of 71.3 nM.

`Cc1ccc(C(=O)N2CCN(c3nc4cc(F)cc(F)c4c(Nc4cncc(N5CCOCC5)c4)c3C)CC2)o1` [5,7-difluoro-3-methyl-2-(4-((5-methyl-2-furanyl)carbonyl)-1-piperazinyl)-N-(5-(4-morpholinyl)-3-pyridinyl)-4-quinolinamine]: affinity was put at a Ki of 78.2 nM.

In the case of `Cc1ccc(C(=O)N2CCN(c3nc4cc(F)cc(F)c4c(Nc4cncc(N5CCOCC5)c4)c3C)CC2)cn1` [5,7-difluoro-3-methyl-2-(4-((6-methyl-3-pyridinyl)carbonyl)-1-piperazinyl)-N-(5-(4-morpholinyl)-3-pyridinyl)-4-quinolinamine], affinity was put at a Ki of 180 nM.

For `Cc1c(N2CCN(S(C)(=O)=O)CC2)nc2cc(F)cc(F)c2c1Nc1cncc(N2CCOCC2)c1` [5,7-difluoro-3-methyl-2-(4-(methylsulfonyl)-1-piperazinyl)-N-(5-(4-morpholinyl)-3-pyridinyl)-4-quinolinamine], the Ki turned out to be 45.5 nM.

`Cc1c(N2CCN(C)CC2)nc2cc(F)cc(F)c2c1Nc1cncc(N2CCOCC2)c1` [5,7-difluoro-3-methyl-2-(4-methyl-1-piperazinyl)-N-(5-(4-morpholinyl)-3-pyridinyl)-4-quinolinamine] displayed an inhibitory constant (Ki) of 35.2 nM.

Regarding `Cc1ccnc(-c2nc3cc(F)cc(F)c3c(Nc3cc(N4CCOCC4)ccc3S(C)(=O)=O)c2C)c1` [5,7-difluoro-3-methyl-2-(4-methyl-2-pyridinyl)-N-(2-(methylsulfonyl)-5-(4-morpholinyl)phenyl)-4-quinolinamine], the inhibition constant Ki amounted to 0.821 nM.

The compound `Cc1ccnc(-c2nc3cc(F)cc(F)c3c(Nc3cncc(N4CCOCC4)c3)c2C)c1` [5,7-difluoro-3-methyl-2-(4-methyl-2-pyridinyl)-N-(5-(4-morpholinyl)-3-pyridinyl)-4-quinolinamine] showed an inhibitory constant (Ki) of 19.2 nM.

For the compound `Cc1c(N2CCOCC2)nc2cc(F)cc(F)c2c1Nc1cncc(N2CCOCC2)c1` [5,7-difluoro-3-methyl-2-(4-morpholinyl)-N-(5-(4-morpholinyl)-3-pyridinyl)-4-quinolinamine], the inhibition constant (Ki) turned out to be 55.7 nM.

Regarding `Cc1ccc(S(C)(=O)=O)c(-c2nc3cc(F)cc(F)c3c(Nc3cncc(N4CCOCC4)c3)c2C)c1` [5,7-difluoro-3-methyl-2-(5-methyl-2-(methylsulfonyl)phenyl)-N-(5-(4-morpholinyl)-3-pyridinyl)-4-quinolinamine], the Ki turned out to be 1.35 nM.

As for `Cc1ccc(-c2nc3cc(F)cc(F)c3c(Nc3cncc(N4CCOCC4)c3)c2C)nc1` [5,7-difluoro-3-methyl-2-(5-methyl-2-pyridinyl)-N-(5-(4-morpholinyl)-3-pyridinyl)-4-quinolinamine], the Ki was determined as 19.1 nM.

For the compound `Cc1ccc(-c2nc3cc(F)cc(F)c3c(Nc3cncc(N4CCOCC4)c3)c2C)cn1` [5,7-difluoro-3-methyl-2-(6-methyl-3-pyridinyl)-N-(5-(4-morpholinyl)-3-pyridinyl)-4-quinolinamine], the Ki stood at 19.1 nM.

In turn, `Cc1c(N2CCNC[C@H]2C)nc2cc(F)cc(F)c2c1Nc1cncc(N2CCOCC2)c1` [5,7-difluoro-3-methyl-2-((2R)-2-methyl-1-piperazinyl)-N-(5-(4-morpholinyl)-3-pyridinyl)-4-quinolinamine] registered a Ki of 15.9 nM.

The compound `Cc1c(N2CCNC[C@@H]2C)nc2cc(F)cc(F)c2c1Nc1cncc(N2CCOCC2)c1` [5,7-difluoro-3-methyl-2-((2S)-2-methyl-1-piperazinyl)-N-(5-(4-morpholinyl)-3-pyridinyl)-4-quinolinamine] had a Ki of 78.1 nM.

In turn, `Cc1c(N2CCN[C@H](C)C2)nc2cc(F)cc(F)c2c1Nc1cncc(N2CCOCC2)c1` [5,7-difluoro-3-methyl-2-((3R)-3-methyl-1-piperazinyl)-N-(5-(4-morpholinyl)-3-pyridinyl)-4-quinolinamine] showed an inhibitory constant (Ki) of 44.3 nM. This Ki lies about 1.8-fold lower than the previous one.

In turn, `Cc1c(N2CCN(S(C)(=O)=O)[C@H](C)C2)nc2cc(F)cc(F)c2c1Nc1cncc(N2CCOCC2)c1` [5,7-difluoro-3-methyl-2-((3R)-3-methyl-4-(methylsulfonyl)-1-piperazinyl)-N-(5-(4-morpholinyl)-3-pyridinyl)-4-quinolinamine] showed a Ki of 244 nM.

`Cc1c(N2CCN[C@@H](C)C2)nc2cc(F)cc(F)c2c1Nc1cncc(N2CCOCC2)c1` [5,7-difluoro-3-methyl-2-((3S)-3-methyl-1-piperazinyl)-N-(5-(4-morpholinyl)-3-pyridinyl)-4-quinolinamine] yielded a Ki of 20.6 nM.

`Cc1c(-c2ccccn2)nc2cc(F)cc(F)c2c1Oc1cncc(N2CCOCC2)c1` [5,7-difluoro-3-methyl-4-((5-(4-morpholinyl)-3-pyridinyl)oxy)-2-(2-pyridinyl)quinoline]: the affinity, expressed as Ki, was 51.9 nM.

`Cc1c(-c2ccccn2)nc2cc(F)cc(F)c2c1Nc1cc(N2CCOCC2)cnc1-c1ccc(S(C)(=O)=O)cc1` [5,7-difluoro-3-methyl-N-(2-(4-(methylsulfonyl)phenyl)-5-(4-morpholinyl)-3-pyridinyl)-2-(2-pyridinyl)-4-quinolinamine] displayed a Ki of 2.15 nM.

The compound `Cc1c(-c2ccccc2S(C)(=O)=O)nc2cc(F)cc(F)c2c1Nc1cc(N2CCOCC2)ccc1S(C)(=O)=O` [5,7-difluoro-3-methyl-N-(2-(methylsulfonyl)-5-(4-morpholinyl)-phenyl)-2-(2-(methylsulfonyl)phenyl)-4-quinolinamine] registered an inhibition constant (Ki) of 0.827 nM. This Ki lies about 2.6-fold lower than the previous one.

For the compound `Cc1c(N2CCNCC2)nc2cc(F)cc(F)c2c1Nc1cncc(N2CCOCC2)c1` [5,7-difluoro-3-methyl-N-(5-(4-morpholinyl)-3-pyridinyl)-2-(1-piperazinyl)-4-quinolinamine], the inhibitory constant (Ki) came out at 87.1 nM.

In turn, `Cc1c(-c2ccnc(N3CCCC3)c2)nc2cc(F)cc(F)c2c1Nc1cncc(N2CCOCC2)c1` [5,7-difluoro-3-methyl-N-(5-(4-morpholinyl)-3-pyridinyl)-2-(2-(1-pyrrolidinyl)-4-pyridinyl)-4-quinolinamine] displayed a Ki of 315 nM. Against the preceding compound, the Ki is about 3.6-fold higher.

As to `Cc1c(N2CCN(C(=O)c3cocn3)CC2)nc2cc(F)cc(F)c2c1Nc1cncc(N2CCOCC2)c1` [5,7-difluoro-3-methyl-N-(5-(4-morpholinyl)-3-pyridinyl)-2-(4-(1,3-oxazol-4-ylcarbonyl)-1-piperazinyl)-4-quinolinamine], affinity was put at a Ki of 14.5 nM.

Consider `Cc1c(N2CCN(C(=O)c3cnco3)CC2)nc2cc(F)cc(F)c2c1Nc1cncc(N2CCOCC2)c1` [5,7-difluoro-3-methyl-N-(5-(4-morpholinyl)-3-pyridinyl)-2-(4-(1,3-oxazol-5-ylcarbonyl)-1-piperazinyl)-4-quinolinamine], for which affinity was put at a Ki of 48 nM.

`Cc1c(N2CCN(CC(F)(F)F)CC2)nc2cc(F)cc(F)c2c1Nc1cncc(N2CCOCC2)c1` [5,7-difluoro-3-methyl-N-(5-(4-morpholinyl)-3-pyridinyl)-2-(4-(2,2,2-trifluoroethyl)-1-piperazinyl)-4-quinolinamine] showed a Ki of 40.7 nM.

Regarding `Cc1c(N2CCN(C(=O)c3ncccn3)CC2)nc2cc(F)cc(F)c2c1Nc1cncc(N2CCOCC2)c1` [5,7-difluoro-3-methyl-N-(5-(4-morpholinyl)-3-pyridinyl)-2-(4-(2-pyrimidinylcarbonyl)-1-piperazinyl)-4-quinolinamine], the affinity, expressed as Ki, was 645 nM.
